{"source": "patent US20250051327A1", "about": "“MALT-1 MODULATORS” (EXSCIENTIA AI LIMITED, priority 2020, published 2025)", "key": {"[1]": {"biological_target": "Recombinant human MALT-1 (amino acids 340-824) (Homo sapiens (Human), UniProt Q9UDY8)", "sequence (Q9UDY8 340-824)": "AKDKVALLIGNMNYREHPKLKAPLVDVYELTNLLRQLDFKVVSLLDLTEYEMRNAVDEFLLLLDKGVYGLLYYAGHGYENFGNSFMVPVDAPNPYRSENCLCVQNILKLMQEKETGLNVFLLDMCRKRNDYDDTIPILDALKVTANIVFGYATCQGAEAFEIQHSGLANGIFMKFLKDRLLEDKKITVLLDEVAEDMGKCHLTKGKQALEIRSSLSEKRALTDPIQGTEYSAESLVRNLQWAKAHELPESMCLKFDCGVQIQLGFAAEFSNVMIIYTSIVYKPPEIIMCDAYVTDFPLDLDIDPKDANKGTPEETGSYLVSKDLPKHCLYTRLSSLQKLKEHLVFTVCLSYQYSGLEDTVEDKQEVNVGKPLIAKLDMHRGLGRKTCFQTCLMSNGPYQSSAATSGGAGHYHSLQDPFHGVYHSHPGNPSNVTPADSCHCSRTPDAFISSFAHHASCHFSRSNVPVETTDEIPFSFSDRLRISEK", "assay": "MALT-1 inhibition assay (fluorogenic substrate Ac-LRSR-Rh110-DP)", "format": "biochemical", "conditions": "recombinant human MALT-1, substrate Ac-LRSR-Rh110-DP", "summary_of_the_method": "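MALT-1 at 3 nM final was reacted with 10 μM Ac-LRSR-Rh110-DP, with substrate addition starting the reaction. Incubation ran 60 minutes at 25° C in the dark. Percent inhibition from fluorescence across doses was fitted to a 4-parameter logistic to give IC50.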"}, "[2]": {"system": "IL-2 secretion by human effector memory T cells (TEM)", "assay": "Effector memory T cells IL-2 release assay", "format": "cell-based", "conditions": "T-cell; human CD4+ effector memory T cells, CD3/CD28 bead stimulation, 24 h; read-out: CD4TC IL2 IC50", "summary_of_the_method": "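Human CD4+ effector memory T cells from healthy-donor buffy coats were stimulated with anti-CD3/CD28 Dynabeads and exposed to 10 semi-log compound doses (0.1% DMSO) for 24 h at 37 °C. Supernatant IL-2 was measured by HTRF, and IC50 came from a 4-parameter logistic fit to maximal IL-2. Viability was checked by flow cytometry.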"}}, "data": [{"compound": "CN(C(=O)[C@@H]1CCS(=O)(=O)C1)[C@@H](c1ccc(N2CCCc3c2cnc2cc(Cl)nn32)cc1)C(F)(F)F", "note": "(relative stereo) [CPD0022135, (3rel-S)-N-[(1S)-1-(4-{4-chloro-2,3,7,10-tetraazatricyclo[7.4.0.0^2,6]trideca-1(9),3,5,7-tetraen-10-yl}phenyl)-2,2,2-trifluoroethyl]-N-methyl-1,1-dioxo-1λ^6-thiolane-3-carboxamide]", "values": [{"measurement": "IC50", "setting": "[1]", "value": 84, "unit": "nM"}, {"measurement": "IC50", "setting": "[2]", "value": 95, "unit": "nM"}]}, {"compound": "CN(C(=O)[C@H]1CC[S@@+]([O-])CC1)[C@@H](c1ccc(N2CCCc3c2cnc2cc(Cl)nn32)cc1)C(F)(F)F", "note": "(relative stereo) [CPD0022136, (1rel-s,4rel-s)-N-[(1S)-1-(4-{4-chloro-2,3,7,10-tetraazatricyclo[7.4.0.0^2,6]trideca-1(9),3,5,7-tetraen-10-yl}phenyl)-2,2,2-trifluoroethyl]-N-methyl-1-oxo-1λ^4-thiane-4-carboxamide]", "values": [{"measurement": "IC50", "setting": "[1]", "value": 45, "unit": "nM"}, {"measurement": "IC50", "setting": "[2]", "value": 106, "unit": "nM"}]}, {"compound": "CN(C(=O)[C@H]1CC[S@+]([O-])CC1)[C@@H](c1ccc(N2CCCc3c2cnc2cc(Cl)nn32)cc1)C(F)(F)F", "note": "(relative stereo) [CPD0022137, (1rel-r,4rel-r)-N-[(1S)-1-(4-{4-chloro-2,3,7,10-tetraazatricyclo[7.4.0.0^2,6]trideca-1(9),3,5,7-tetraen-10-yl}phenyl)-2,2,2-trifluoroethyl]-N-methyl-1-oxo-1λ^4-thiane-4-carboxamide]", "values": [{"measurement": "IC50", "setting": "[1]", "value": 73, "unit": "nM"}, {"measurement": "IC50", "setting": "[2]", "value": 127, "unit": "nM"}]}, {"compound": "CN(C(=O)[C@H]1CC[S@@](=N)(=O)CC1)[C@@H](c1ccc(N2CCCc3c2cnc2cc(Cl)nn32)cc1)C(F)(F)F", "note": "(relative stereo) [CPD0072528, (1rel-s,4rel-S)-N-[(1S)-1-(4-{4-chloro-2,3,7,10-tetraazatricyclo[7.4.0.0^2,6]trideca-1(9),3,5,7-tetraen-10-yl}phenyl)-2,2,2-trifluoroethyl]-1-imino-N-methyl-1-oxo-1λ^6-thiane-4-carboxamide]", "values": [{"measurement": "IC50", "setting": "[1]", "value": 32, "unit": "nM"}, {"measurement": "IC50", "setting": "[2]", "value": 108, "unit": "nM"}]}, {"compound": "CN(C(=O)[C@H]1CC[S@](=N)(=O)CC1)[C@@H](c1ccc(N2CCCc3c2cnc2cc(Cl)nn32)cc1)C(F)(F)F", "note": "(relative stereo) [CPD0072529, (1rel-r,4rel-r)-N-[(1S)-1-(4-{4-chloro-2,3,7,10-tetraazatricyclo[7.4.0.0^2,6]trideca-1(9),3,5,7-tetraen-10-yl}phenyl)-2,2,2-trifluoroethyl]-1-imino-N-methyl-1-oxo-1λ^6-thiane-4-carboxamide]", "values": [{"measurement": "IC50", "setting": "[1]", "value": 26, "unit": "nM"}, {"measurement": "IC50", "setting": "[2]", "value": 94, "unit": "nM"}]}, {"compound": "CN=[S@]1(=O)CC[C@@H](C(=O)N(C)[C@@H](c2ccc(N3CCCc4c3cnc3cc(Cl)nn43)cc2)C(F)(F)F)CC1", "note": "(relative stereo) [CPD0072530, (1rel-S,4rel-S)—N-[(1S)-1-(4-{4-chloro-2,3,7,10-tetraazatricyclo[7.4.0.0^2,6]trideca-1(9),3,5,7-tetraen-10-yl}phenyl)-2,2,2-trifluoroethyl]-N-methyl-1-(methylimino)-1-oxo-1λ^e-thiane-4-carboxamide]", "values": [{"measurement": "IC50", "setting": "[1]", "value": 59, "unit": "nM"}, {"measurement": "IC50", "setting": "[2]", "value": 127, "unit": "nM"}]}, {"compound": "CN=[S@]1(=O)CC[C@H](C(=O)N(C)[C@@H](c2ccc(N3CCCc4c3cnc3cc(Cl)nn43)cc2)C(F)(F)F)CC1", "note": "(relative stereo) [CPD0072531, (1rel-R,4rel-R)—N-[(1S)-1-(4-{4-chloro-2,3,7,10-tetraazatricyclo[7.4.0.0^2,6]trideca-1(9),3,5,7-tetraen-10-yl}phenyl)-2,2,2-trifluoroethyl]-N-methyl-1-(methylimino)-1-oxo-1λ^e-thiane-4-carboxamide]", "values": [{"measurement": "IC50", "setting": "[1]", "value": 38, "unit": "nM"}, {"measurement": "IC50", "setting": "[2]", "value": 141, "unit": "nM"}]}, {"compound": "CN(C(=O)[C@H]1CC[S@@+]([O-])CC1)[C@@H](c1ccc(N2CCC(C)(C)c3c2cnc2cc(Cl)nn32)cc1)C(F)(F)F", "note": "(relative stereo) [CPD0072776, (1rel-s,4rel-s)-N-[(1S)-1-(4-{4-chloro-13,13-dimethyl-2,3,7,10-tetraazatricyclo[7.4.0.0^2,6]trideca-1(9),3,5,7-tetraen-10-yl}phenyl)-2,2,2-trifluoroethyl]-N-methyl-1-oxo-1λ^4-thiane-4-carboxamide]", "values": [{"measurement": "IC50", "setting": "[1]", "value": 73, "unit": "nM"}, {"measurement": "IC50", "setting": "[2]", "value": 35, "unit": "nM"}]}, {"compound": "CN(C(=O)[C@H]1CC[S@+]([O-])CC1)[C@@H](c1ccc(N2CCC(C)(C)c3c2cnc2cc(Cl)nn32)cc1)C(F)(F)F", "note": "(relative stereo) [CPD0072777, (1rel-r,4rel-r)-N-[(1S)-1-(4-{4-chloro-13,13-dimethyl-2,3,7,10-tetraazatricyclo[7.4.0.0^2,6]trideca-1(9),3,5,7-tetraen-10-yl}phenyl)-2,2,2-trifluoroethyl]-N-methyl-1-oxo-1λ^4-thiane-4-carboxamide]", "values": [{"measurement": "IC50", "setting": "[1]", "value": 62, "unit": "nM"}, {"measurement": "IC50", "setting": "[2]", "value": 36, "unit": "nM"}]}, {"compound": "CN(C(=O)[C@H]1CC[S@@+]([O-])CC1)[C@@H](c1ccc(N2CCC3(CC3)c3c2cnc2cc(Cl)nn32)cc1)C(F)(F)F", "note": "(relative stereo) [CPD0072778, (1rel-s,4rel-s)-N-[(1S)-1-(4-{4′-chloro-2′,3′,7′,10′-tetraazaspiro[cyclopropane-1,13′-tricyclo[7.4.0.0^2,6]tridecane]-1′(9′),3′,5′,7′-tetraen-10′-yl}phenyl)-2,2,2-trifluoroethyl]-N-methyl-1-oxo-1λ^4-thiane-4-carboxamide]", "values": [{"measurement": "IC50", "setting": "[1]", "value": 58, "unit": "nM"}, {"measurement": "IC50", "setting": "[2]", "value": 42, "unit": "nM"}]}, {"compound": "CN(C(=O)[C@H]1CC[S@+]([O-])CC1)[C@@H](c1ccc(N2CCC3(CC3)c3c2cnc2cc(Cl)nn32)cc1)C(F)(F)F", "note": "(relative stereo) [CPD0072779, (1rel-r,4rel-r)-N-[(1S)-1-(4-{4′-chloro-2′,3′,7′,10′-tetraazaspiro[cyclopropane-1,13′-tricyclo[7.4.0.0^2,6]tridecane]-1′(9′),3′,5′,7′-tetraen-10′-yl}phenyl)-2,2,2-trifluoroethyl]-N-methyl-1-oxo-1λ^4-thiane-4-carboxamide]", "values": [{"measurement": "IC50", "setting": "[1]", "value": 57, "unit": "nM"}, {"measurement": "IC50", "setting": "[2]", "value": 33, "unit": "nM"}]}, {"compound": "CN(C(=O)[C@H]1CC[S@@+]([O-])CC1)[C@@H](c1ccc(N2CCC(C)(C)c3c2cnc2cc(F)nn32)cc1)C(F)(F)F", "note": "(relative stereo) [CPD0072780, (1rel-s,4rel-s)-N-methyl-1-oxo-N-[(1S)-2,2,2-trifluoro-1-(4-{4-fluoro-13,13-dimethyl-2,3,7,10-tetraazatricyclo[7.4.0.0^2,6]trideca-1(9),3,5,7-tetraen-10-yl}phenyl)ethyl]-1λ^4-thiane-4-carboxamide]", "values": [{"measurement": "IC50", "setting": "[1]", "value": 75, "unit": "nM"}, {"measurement": "IC50", "setting": "[2]", "value": 107, "unit": "nM"}]}, {"compound": "CN(C(=O)[C@H]1CC[S@+]([O-])CC1)[C@@H](c1ccc(N2CCC(C)(C)c3c2cnc2cc(F)nn32)cc1)C(F)(F)F", "note": "(relative stereo) [CPD0072781, (1rel-r,4rel-r)-N-methyl-1-oxo-N-[(1S)-2,2,2-trifluoro-1-(4-{4-fluoro-13,13-dimethyl-2,3,7,10-tetraazatricyclo [7.4.0.02,6]trideca-1(9),3,5,7-tetraen-10-yl}phenyl)ethyl]-1/4-thiane-4-carboxamide]", "values": [{"measurement": "IC50", "setting": "[1]", "value": 60, "unit": "nM"}, {"measurement": "IC50", "setting": "[2]", "value": 75, "unit": "nM"}]}, {"compound": "CN(C(=O)[C@H]1CC[S@@](=N)(=O)CC1)[C@@H](c1ccc(N2CCC(C)(C)c3c2cnc2cc(F)nn32)cc1)C(F)(F)F", "note": "(relative stereo) [CPD0072782]", "values": [{"measurement": "IC50", "setting": "[1]", "value": 53, "unit": "nM"}, {"measurement": "IC50", "setting": "[2]", "value": 95, "unit": "nM"}]}, {"compound": "CN(C(=O)[C@H]1CC[S@](=N)(=O)CC1)[C@@H](c1ccc(N2CCC(C)(C)c3c2cnc2cc(F)nn32)cc1)C(F)(F)F", "note": "(relative stereo) [CPD0072783, (1rel-r,4rel-r)-1-imino-N-methyl-1-oxo-N-[(1S)-2,2,2-trifluoro-1-(4-{4′-fluoro-2′,3′,7′,10′-tetraazaspiro[cyclopropane-1,13′-tricyclo[7.4.0.0^2,6]tridecane]-1′(9′),3′,5′,7′-tetraen-10′-yl}phenyl)ethyl]-1λ^6-thiane-4-carboxamide]", "values": [{"measurement": "IC50", "setting": "[1]", "value": 63, "unit": "nM"}, {"measurement": "IC50", "setting": "[2]", "value": 114, "unit": "nM"}]}, {"compound": "CN(C(=O)[C@H]1CC[S@@](=N)(=O)CC1)[C@@H](c1ccc(N2CCC(C)(C)c3c2cnc2cc(Cl)nn32)cc1)C(F)(F)F", "note": "(relative stereo) [CPD0072784, (1rel-s,4rel-s)-N-[(1S)-1-(4-{4-chloro-13,13-dimethyl-2,3,7,10-tetraazatricyclo[7.4.0.0^2,6]trideca-1(9),3,5,7-tetraen-10-yl}phenyl)-2,2,2-trifluoroethyl]-1-imino-N-methyl-1-oxo-1λ^6-thiane-4-carboxamide]", "values": [{"measurement": "IC50", "setting": "[1]", "value": 74, "unit": "nM"}, {"measurement": "IC50", "setting": "[2]", "value": 56, "unit": "nM"}]}, {"compound": "CN(C(=O)[C@H]1CC[S@](=N)(=O)CC1)[C@@H](c1ccc(N2CCC(C)(C)c3c2cnc2cc(Cl)nn32)cc1)C(F)(F)F", "note": "(relative stereo) [CPD0072785, (1rel-r,4rel-r)-N-[(1S)-1-(4-{4-chloro-13,13-dimethyl-2,3,7,10-tetraazatricyclo[7.4.0.0^2,6]trideca-1(9),3,5,7-tetraen-10-yl}phenyl)-2,2,2-trifluoroethyl]-1-imino-N-methyl-1-oxo-1λ^6-thiane-4-carboxamide]", "values": [{"measurement": "IC50", "setting": "[1]", "value": 76, "unit": "nM"}, {"measurement": "IC50", "setting": "[2]", "value": 51, "unit": "nM"}]}, {"compound": "CN(C(=O)C[C@H]1CCS(=O)(=O)C1)[C@@H](c1ccc(N2CCCc3c2cnc2cc(Cl)nn32)cc1)C(F)(F)F", "note": "(relative stereo) [CPD0072799, N-[(1S)-1-(4-{4-chloro-2,3,7,10-tetraazatricyclo[7.4.0.0^2,6]trideca-1(9),3,5,7-tetraen-10-yl}phenyl)-2,2,2-trifluoroethyl]-2-[(3rel-S)-1,1-dioxo-1λ^6-thiolan-3-yl]-N-methylacetamide]", "values": [{"measurement": "IC50", "setting": "[1]", "value": 88, "unit": "nM"}, {"measurement": "IC50", "setting": "[2]", "value": 178, "unit": "nM"}]}, {"compound": "CN(C(=O)C[C@@H]1CCS(=O)(=O)C1)[C@@H](c1ccc(N2CCCc3c2cnc2cc(Cl)nn32)cc1)C(F)(F)F", "note": "(relative stereo) [CPD0072800, N-[(1S)-1-(4-{4-chloro-2,3,7,10-tetraazatricyclo[7.4.0.0^2,6]trideca-1(9),3,5,7-tetraen-10-yl}phenyl)-2,2,2-trifluoroethyl]-2-[(3rel-R)-1,1-dioxo-1λ^6-thiolan-3-yl]-N-methylacetamide]", "values": [{"measurement": "IC50", "setting": "[1]", "value": 92, "unit": "nM"}, {"measurement": "IC50", "setting": "[2]", "value": 187, "unit": "nM"}]}]}
